Data as given in ChEMBL document CHEMBL4373635, “Synthesis of novel vanillin derivatives: novel multi-targeted scaffold ligands against Alzheimer's disease” (Medchemcomm, 2019).
Activity calls are given as the source filed them. The calls are words filed in the database; no cut-off is given here.

How the values were obtained:
[1] = Antioxidant activity assessed as reduction of ferric-tripyridyltriazine complex by measuring trolox equivalents at pH 3.5 after 30 mins under dark condition by FRAP assay; type: functional
[2] = Antioxidant activity assessed as AAPH radical scavenging activity by measuring trolox equivalents preincubated for 30 mins followed by AAPH addition and measured every 2 mins for 2 hrs by ORAC assay; type: functional
Acetylcholinesterase = Acetylcholinesterase (Electrophorus electricus, UniProt O42275); assay: Inhibition of Electrophorus electricus AChE using acetylthiocholine iodide as substrate preincubated for 10 mins followed by substrate addition and measured after 10 mins by Ellman's method
[3] = biological target: Amyloid-beta precursor protein (Homo sapiens) (UniProt P05067); assay: Inhibition of amyloid beta (1 to 42 ) (unknown origin) self aggregation at 10 uM after 24 hrs by thioflavin-T fluorescence method relative to control
SH-SY5Y [4] = assay: Cytotoxicity against human SH-SY5Y cells assessed as reduction in cell viability after 24 hrs by MTT assay; type: cell-based
SH-SY5Y [5] = assay: Cytotoxicity against human SH-SY5Y cells assessed as reduction in cell viability at 25 uM after 24 hrs by MTT assay; type: cell-based
SH-SY5Y [6] = assay: Cytotoxicity against human SH-SY5Y cells assessed as cell viability at 12.5 uM after 24 hrs by MTT assay; type: cell-based
SH-SY5Y [7] = assay: Neuroprotective activity against human SH-SY5Y cells assessed as inhibition of H2O2-induced cell death at 5 uM preincubated for 24 hrs followed by H2O2 treatment and measured after 24 hrs by MTT assay relative to control; type: functional
SH-SY5Y [8] = assay: Neuroprotective activity against human SH-SY5Y cells assessed as inhibition of H2O2-induced cell death at 1 uM preincubated for 24 hrs followed by H2O2 treatment and measured after 24 hrs by MTT assay; type: functional, cell-based
SH-SY5Y [9] = assay: Neuroprotective activity against human SH-SY5Y cells assessed as H2O2-induced cell death at 0.01 to 0.1 uM preincubated for 24 hrs followed by H2O2 treatment and measured after 24 hrs by MTT assay; type: functional, cell-based
SH-SY5Y [10] = assay: Cytotoxicity against human SH-SY5Y cells assessed as cell viability at 5 uM after 24 hrs by MTT assay; type: cell-based

Chain of Acetylcholinesterase (O42275 whole entry): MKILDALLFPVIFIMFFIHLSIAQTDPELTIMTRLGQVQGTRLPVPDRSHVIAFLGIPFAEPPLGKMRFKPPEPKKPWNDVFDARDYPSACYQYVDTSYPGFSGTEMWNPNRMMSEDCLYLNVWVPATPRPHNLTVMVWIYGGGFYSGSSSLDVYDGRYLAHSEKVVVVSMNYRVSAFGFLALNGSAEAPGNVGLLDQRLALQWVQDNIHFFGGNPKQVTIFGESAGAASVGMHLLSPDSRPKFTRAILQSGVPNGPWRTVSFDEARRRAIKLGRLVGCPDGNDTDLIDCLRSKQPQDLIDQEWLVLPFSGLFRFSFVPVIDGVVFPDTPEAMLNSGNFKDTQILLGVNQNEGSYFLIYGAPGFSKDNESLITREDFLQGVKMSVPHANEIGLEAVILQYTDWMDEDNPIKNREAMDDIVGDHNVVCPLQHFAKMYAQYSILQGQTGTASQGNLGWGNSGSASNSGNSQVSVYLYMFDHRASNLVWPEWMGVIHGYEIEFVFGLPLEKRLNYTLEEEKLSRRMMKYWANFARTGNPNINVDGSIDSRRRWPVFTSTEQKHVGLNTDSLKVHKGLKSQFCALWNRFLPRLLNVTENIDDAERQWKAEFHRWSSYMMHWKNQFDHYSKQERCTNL
Chain of Amyloid-beta precursor protein (Homo sapiens) (P05067 whole entry): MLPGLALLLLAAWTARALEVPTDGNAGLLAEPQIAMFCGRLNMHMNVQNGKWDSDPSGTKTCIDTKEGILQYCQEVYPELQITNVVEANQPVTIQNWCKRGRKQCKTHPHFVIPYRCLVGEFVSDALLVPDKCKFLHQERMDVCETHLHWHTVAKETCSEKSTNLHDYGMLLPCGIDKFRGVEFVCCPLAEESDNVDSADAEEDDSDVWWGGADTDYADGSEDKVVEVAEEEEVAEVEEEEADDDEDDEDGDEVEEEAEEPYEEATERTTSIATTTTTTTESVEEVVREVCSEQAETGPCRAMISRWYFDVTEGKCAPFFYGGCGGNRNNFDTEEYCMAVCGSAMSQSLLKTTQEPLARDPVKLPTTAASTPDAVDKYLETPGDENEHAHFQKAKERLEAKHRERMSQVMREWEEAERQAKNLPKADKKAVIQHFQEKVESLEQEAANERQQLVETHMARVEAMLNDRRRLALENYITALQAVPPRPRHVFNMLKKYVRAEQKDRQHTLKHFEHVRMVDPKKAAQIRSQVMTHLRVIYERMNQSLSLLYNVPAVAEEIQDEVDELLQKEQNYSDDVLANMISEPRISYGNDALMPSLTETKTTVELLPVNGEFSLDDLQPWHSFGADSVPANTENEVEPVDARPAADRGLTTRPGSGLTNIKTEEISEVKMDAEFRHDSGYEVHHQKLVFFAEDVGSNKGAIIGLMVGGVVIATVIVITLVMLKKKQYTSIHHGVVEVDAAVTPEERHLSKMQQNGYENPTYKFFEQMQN

Row | SMILES | Activity [1] | Activity [2] | IC50 (Acetylcholinesterase) | inhibition [3] | IC50 (SH-SY5Y [4]) | Activity (SH-SY5Y [5]) | Activity (SH-SY5Y [6]) | inhibition at 5 µM (SH-SY5Y [7]) | Activity (SH-SY5Y [8]) | Activity (SH-SY5Y [9]) | Activity (SH-SY5Y [10])
1 | COc1cc(CNCCCN2C(=O)c3cccc4cccc(c34)C2=O)cc(OC)c1O | 1.45 equiv | 2 equiv | 24.3 µM | 33.2% |  |  |  |  |  |  | 
2 | COc1cc(CNCCCN2C(=O)c3cccc4cccc(c34)C2=O)ccc1O | 0.26 equiv | 3.9 equiv | 10.1 µM | 30.4% |  |  |  |  |  |  | 
3 | COc1cc(/C=N/CCCN2C(=O)c3cccc4cccc(c34)C2=O)ccc1O | 0.07 equiv | 2.1 equiv | 128 µM |  |  |  |  |  |  |  | 
4 | COc1cc(CNc2ccc(Nc3c4c(nc5ccccc35)CCCC4)cc2)ccc1O | 1.54 equiv | 6.4 equiv | 2.13 µM | 77.1% | 45.1 µM | Toxic | Non-Toxic | 30% | Active | inactive | Non-Toxic
